Experimental data taken from PubChem BioAssay (NCI).
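Exposure lasted 48 hours, with cells grown in 96-well plates and compounds tested at five concentrations. GI50 = concentration required for 50% inhibition of growth. TGI marks complete inhibition of growth.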

Key:
Experiment in all cases: NCI anticancer screen, dose series, 48 h
DU-145 prostate = tested on: DU-145 prostate
SN12C renal = tested on: SN12C renal
OVCAR-5 ovarian = tested on: OVCAR-5 ovarian
MCF7 breast = tested on: MCF7 breast
SNB-75 CNS = tested on: SNB-75 CNS
IGROV1 ovarian = tested on: IGROV1 ovarian
T-47D breast = tested on: T-47D breast
SK-MEL-5 melanoma = tested on: SK-MEL-5 melanoma
PC-3 prostate = tested on: PC-3 prostate
M14 melanoma = tested on: M14 melanoma
SK-OV-3 ovarian = tested on: SK-OV-3 ovarian
SF-268 CNS = tested on: SF-268 CNS
U251 CNS = tested on: U251 CNS
MDA-MB-435 = tested on: MDA-MB-435
HOP-92 NSCLC = tested on: HOP-92 NSCLC
MALME-3M melanoma = tested on: MALME-3M melanoma
HCC-2998 colon = tested on: HCC-2998 colon
COLO 205 colon = tested on: COLO 205 colon
UACC-62 melanoma = tested on: UACC-62 melanoma
SF-295 CNS = tested on: SF-295 CNS
RPMI-8226 leukemia = tested on: RPMI-8226 leukemia
EKVX NSCLC = tested on: EKVX NSCLC
LOX IMVI melanoma = tested on: LOX IMVI melanoma
HOP-62 NSCLC = tested on: HOP-62 NSCLC
MDA-MB-231 breast = tested on: MDA-MB-231 breast
OVCAR-8 ovarian = tested on: OVCAR-8 ovarian
OVCAR-4 ovarian = tested on: OVCAR-4 ovarian
A498 renal = tested on: A498 renal
TK-10 renal = tested on: TK-10 renal
NCI-H226 lung = tested on: NCI-H226 lung
UO-31 renal = tested on: UO-31 renal
UACC-257 melanoma = tested on: UACC-257 melanoma
CAKI-1 renal = tested on: CAKI-1 renal
NCI-H460 lung = tested on: NCI-H460 lung
NCI-H522 lung = tested on: NCI-H522 lung
HL-60(TB) leukemia = tested on: HL-60(TB) leukemia
SK-MEL-2 melanoma = tested on: SK-MEL-2 melanoma
SW-620 colon = tested on: SW-620 colon
BT-549 breast = tested on: BT-549 breast
HCT-15 colon = tested on: HCT-15 colon
HCT-116 colon = tested on: HCT-116 colon
HT29 colon = tested on: HT29 colon
NCI-H23 lung = tested on: NCI-H23 lung
786-0 renal = tested on: 786-0 renal
SK-MEL-28 melanoma = tested on: SK-MEL-28 melanoma
A549 NSCLC = tested on: A549 NSCLC
CCRF-CEM leukemia = tested on: CCRF-CEM leukemia
ACHN renal = tested on: ACHN renal
SR leukemia = tested on: SR leukemia
SF-539 CNS = tested on: SF-539 CNS
K-562 leukemia = tested on: K-562 leukemia
MOLT-4 leukemia = tested on: MOLT-4 leukemia
RXF 393 renal = tested on: RXF 393 renal
SNB-19 CNS = tested on: SNB-19 CNS
KM12 colon = tested on: KM12 colon
NCI/ADR-RES ovarian = tested on: NCI/ADR-RES ovarian
HS 578T breast = tested on: HS 578T breast

COc1ccccc1/C=C/C=N/NC1=NC2C(S1)N(C)C(=O)N2c1ccccc1 (centres undefined)
GI50 (DU-145 prostate): 471 nM | TGI (DU-145 prostate): > 100000 nM | GI50 (SN12C renal): 617 nM | TGI (SN12C renal): 29000 nM | GI50 (OVCAR-5 ovarian): 690 nM | TGI (OVCAR-5 ovarian): > 100000 nM | GI50 (MCF7 breast): 385 nM | TGI (MCF7 breast): > 100000 nM | GI50 (SNB-75 CNS): 419 nM | TGI (SNB-75 CNS): > 53100 nM | GI50 (IGROV1 ovarian): 601 nM | TGI (IGROV1 ovarian): 26300 nM | GI50 (T-47D breast): 4040 nM | TGI (T-47D breast): > 79300 nM | GI50 (SK-MEL-5 melanoma): 545 nM | TGI (SK-MEL-5 melanoma): 5270 nM | GI50 (PC-3 prostate): 435 nM | TGI (PC-3 prostate): 19600 nM | GI50 (M14 melanoma): 333 nM | TGI (M14 melanoma): 2340 nM | GI50 (SK-OV-3 ovarian): 510 nM | TGI (SK-OV-3 ovarian): > 44800 nM | GI50 (SF-268 CNS): 1690 nM | TGI (SF-268 CNS): 37200 nM | GI50 (U251 CNS): 387 nM | TGI (U251 CNS): 6280 nM | GI50 (MDA-MB-435): 250 nM | TGI (MDA-MB-435): 636 nM | GI50 (HOP-92 NSCLC): 202 nM | TGI (HOP-92 NSCLC): 1280 nM | GI50 (MALME-3M melanoma): 2680 nM | TGI (MALME-3M melanoma): 29000 nM | GI50 (HCC-2998 colon): 377 nM | TGI (HCC-2998 colon): 11600 nM | GI50 (COLO 205 colon): 230 nM | TGI (COLO 205 colon): 487 nM | GI50 (UACC-62 melanoma): 456 nM | TGI (UACC-62 melanoma): 37000 nM | GI50 (SF-295 CNS): 336 nM | TGI (SF-295 CNS): 99200 nM | GI50 (RPMI-8226 leukemia): 396 nM | TGI (RPMI-8226 leukemia): 11200 nM | GI50 (EKVX NSCLC): 729 nM | TGI (EKVX NSCLC): > 100000 nM | GI50 (LOX IMVI melanoma): 458 nM | TGI (LOX IMVI melanoma): 12500 nM | GI50 (HOP-62 NSCLC): 573 nM | TGI (HOP-62 NSCLC): 24700 nM | GI50 (MDA-MB-231 breast): 588 nM | TGI (MDA-MB-231 breast): 20900 nM | GI50 (OVCAR-8 ovarian): 357 nM | TGI (OVCAR-8 ovarian): 2230 nM | GI50 (OVCAR-4 ovarian): 5230 nM | TGI (OVCAR-4 ovarian): > 100000 nM | GI50 (A498 renal): 251 nM | TGI (A498 renal): 730 nM | GI50 (TK-10 renal): 11400 nM | TGI (TK-10 renal): > 70900 nM | GI50 (NCI-H226 lung): 572 nM | TGI (NCI-H226 lung): > 47900 nM | GI50 (UO-31 renal): 799 nM | TGI (UO-31 renal): > 55600 nM | GI50 (UACC-257 melanoma): 2180 nM | TGI (UACC-257 melanoma): 34500 nM | GI50 (CAKI-1 renal): 562 nM | TGI (CAKI-1 renal): 37800 nM | GI50 (NCI-H460 lung): 349 nM | TGI (NCI-H460 lung): 11000 nM | GI50 (NCI-H522 lung): 210 nM | TGI (NCI-H522 lung): 575 nM | GI50 (HL-60(TB) leukemia): 294 nM | TGI (HL-60(TB) leukemia): > 31900 nM | GI50 (SK-MEL-2 melanoma): 449 nM | TGI (SK-MEL-2 melanoma): 15300 nM | GI50 (SW-620 colon): 403 nM | TGI (SW-620 colon): 18900 nM | GI50 (BT-549 breast): 264 nM | TGI (BT-549 breast): 653 nM | GI50 (HCT-15 colon): 371 nM | TGI (HCT-15 colon): 23100 nM | GI50 (HCT-116 colon): 353 nM | TGI (HCT-116 colon): 5190 nM | GI50 (HT29 colon): 332 nM | TGI (HT29 colon): 1490 nM | GI50 (NCI-H23 lung): 474 nM | TGI (NCI-H23 lung): > 100000 nM | GI50 (786-0 renal): 642 nM | TGI (786-0 renal): 13800 nM | GI50 (SK-MEL-28 melanoma): 11800 nM | TGI (SK-MEL-28 melanoma): 42200 nM | GI50 (A549 NSCLC): 485 nM | TGI (A549 NSCLC): > 100000 nM | GI50 (CCRF-CEM leukemia): 408 nM | TGI (CCRF-CEM leukemia): > 78800 nM | GI50 (ACHN renal): 692 nM | TGI (ACHN renal): > 48400 nM | GI50 (SR leukemia): 343 nM | TGI (SR leukemia): > 46800 nM | GI50 (SF-539 CNS): 292 nM | TGI (SF-539 CNS): 867 nM | GI50 (K-562 leukemia): 383 nM | TGI (K-562 leukemia): > 100000 nM | GI50 (MOLT-4 leukemia): 404 nM | TGI (MOLT-4 leukemia): > 100000 nM | GI50 (RXF 393 renal): 312 nM | TGI (RXF 393 renal): 3360 nM | GI50 (SNB-19 CNS): 455 nM | TGI (SNB-19 CNS): > 93400 nM | GI50 (KM12 colon): 400 nM | TGI (KM12 colon): > 37100 nM | GI50 (NCI/ADR-RES ovarian): 359 nM | TGI (NCI/ADR-RES ovarian): > 100000 nM | GI50 (HS 578T breast): 356 nM | TGI (HS 578T breast): 25500 nM

N#Cc1c(-c2ccc(Cl)cc2)nc(SCc2ccc([N+](=O)[O-])cc2)nc1N1CCNCC1
GI50 (DU-145 prostate): 1730 nM | TGI (DU-145 prostate): 3110 nM | GI50 (SN12C renal): 1770 nM | TGI (SN12C renal): 3260 nM | GI50 (OVCAR-5 ovarian): 1560 nM | TGI (OVCAR-5 ovarian): 2980 nM | GI50 (SK-MEL-5 melanoma): 1680 nM | TGI (SK-MEL-5 melanoma): 3060 nM | GI50 (SK-OV-3 ovarian): 1780 nM | TGI (SK-OV-3 ovarian): 3200 nM | GI50 (UACC-62 melanoma): 1690 nM | TGI (UACC-62 melanoma): 3110 nM | GI50 (SF-295 CNS): 1780 nM | TGI (SF-295 CNS): 3210 nM | GI50 (A498 renal): 1560 nM | TGI (A498 renal): 2980 nM | GI50 (TK-10 renal): 1560 nM | TGI (TK-10 renal): 2960 nM | GI50 (UO-31 renal): 1320 nM | TGI (UO-31 renal): 2590 nM | GI50 (UACC-257 melanoma): 1620 nM | TGI (UACC-257 melanoma): 3060 nM | GI50 (CAKI-1 renal): 1550 nM | TGI (CAKI-1 renal): 2900 nM | GI50 (SK-MEL-2 melanoma): 1610 nM | TGI (SK-MEL-2 melanoma): 3050 nM | GI50 (SK-MEL-28 melanoma): 1640 nM | TGI (SK-MEL-28 melanoma): 3020 nM | GI50 (RXF 393 renal): 1540 nM | TGI (RXF 393 renal): 2970 nM
